Source: patent US12239643B2, “Therapeutic agent for inflammatory diseases, autoimmune diseases, fibrotic diseases, and cancer diseases” (MEIJI SEIKA PHARMA CO., LTD., priority 2018, dated 2025)
Where two headings read alike, the source gives them in different places.

How the values were obtained:
PDE4 = assay: Evaluation of PDE4 inhibitory activity, scintillation proximity assay; type: biochemical; conditions: for PDE4 inhibitory activity: summary in words of Tables 57 to 69
How it was run: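 IC50 was derived from inhibition curves, referenced to an enzyme-free blank and a DMSO-only control. Compound, PDE4 preparation and tritiated cAMP reacted 120 min at RT in Tris-HCl buffer (pH 7.4) with MgCl2, EGTA and BSA; YSi-SPA beads with ZnSO4 bound product before scintillation counting.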

TNFα = assay: Cytokine suppression using whole human blood: TNFα (lipopolysaccharide stimulus); type: cell-based; conditions: Homo sapiens, human whole blood; read-out: TNFα Inhibitory Activity, Human Whole Blood (Test Example 3)
Experimental: The test compound dissolved in dimethyl sulfoxide was added to a 96-well plate, and RPMI-1640 medium and human peripheral blood containing sodium heparin were added, followed by culture at 37° C. under 5% CO2 for 1 hour. A medium containing only dimethyl sulfoxide instead of the test compound was added to the control well. To each well, lipopolysaccharide (final concentration 10 ng/mL) as a TNFα production stimulant, or phytohaemagglutinin (final concentration 20 μg/mL) as an IL-17A production stimulant, or CytoStim reagent ( 1/100 concentration) and CD28 antibody (final concentration 2.5 ng/mL) as an IL-4 production stimulant and an IL-5 production stimulant were added, followed by culture at 37° C. under 5% CO2. The culture was carried out for about 18 hours for the evaluation of the amount of TNFα, and for about 48 hours for the evaluation of the amounts of IL-17A, IL-4, and IL-5.
After collecting the culture supernatant after culturing, the amount of each cytokine was measured by the sandwich ELISA method. The cytokine production suppression rate (inhibition rate) by the test compound was calculated by the following formula from the cytokine production amount when the test compound was added, with the cytokine production amount for the control well as 100%. Inhibition Rate={1−(Cytokine Amount at Addition of Each Test Compound)/(Cytokine Amount for Control Well)}×100
In addition, the cytokine inhibitory activity (concentration for the inhibition rate of 50%) of the test compound was calculated from the inhibition curves based on the inhibition rates for various concentrations of the test compound.
The measurement results obtained by measuring the TNFα inhibitory activity and IL-5 inhibitory activity (50% inhibitory concentration) of the test compounds by the above method were evaluated in accordance with the following evaluated basis; A: less than 100 nM, B: 100 nM or more and less than 500 nM, and C: 500 nM or more. In addition, the measurement results obtained by measuring the IL-17A inhibitory activity and IL-4 inhibitory activity (50% inhibitory concentration) of the test compounds were evaluated in accordance with the following evaluated basis; A: less than 500 nM, B: 500 nM or more and less than 5000 nM, and C: 5000 nM or more.

[1] = tested on: oxazolone-induced auricle edema, BALB/c mice; assay: Hapten repeated application mouse chronic dermatitis model (oral, topical); type: in vivo; conditions: oral, 0.3 to 10 mg/kg twice a day for 10 days
Experimental: Evaluation was carried out using female BALB/c mice (7 to 8 weeks of age). First, the hair of the abdomen of the mice was treated with a hair clipper, and then 150 μL of a 3% oxazolone acetone/ethanol solution was applied to the abdomen as a hapten. One week later, 20 μL/ear of 1% oxazolone acetone/ethanol solution was applied to the outer surface of the auricle of both ears of the mice 3 times/week to induce inflammation. A 1% oxazolone-acetone/ethanol solution was applied every other day for 10 days from 1 week after the start of inflammation induction. In addition, for 10 days from 1 week after the start of inflammation induction, the test compound suspended in 0.5% w/v methylcellulose (0.5% MC) was orally administered at 0.3 to 10 mg/kg twice a day (10 μL/g), or 20 μL of a 0.3 to 3% test compound dissolved in an acetone/ethanol solution was applied once or twice a day (topical administration). A 1% oxazolone was not applied to the blank. The control was one in which 1% oxazolone was applied and only 0.5% MC was orally administered without using the test compound, or only an acetone/ethanol solution was applied.
After administration for 10 days, auricle thickness was measured using a dial thickness gauge, and the changes in auricular thickness before the treatment (immediately before the start of administration of the test compound) and after the treatment (after the administration of the test compound for 10 days) were used to calculate the edema suppression rate by the following formula. Edema Suppression Rate (%)={1−(Auricle Thickness After Treatment by Test Compound−Auricle Thickness Before Treatment by Test Compound)/(Auricle Thickness After Treatment of Control−Auricle Thickness Before Treatment of Control)}×100
The measurement results obtained by measuring the edema suppression rate at the time of oral administration of each test compound by the above method were evaluated in accordance with the following evaluated basis; A: 70% or more, B: 40% or more and less than 70%, and C: less than 40%. In addition, the measurement results obtained by measuring the edema suppression rate at the time of topical administration of each test compound were evaluated in accordance with the following evaluated basis; A: 100% or more, B: 70% or more and less than 100%, and C: less than 70%.

TGF-β = TGF-β inhibitory activity using THP1 cells differentiated into macrophages; type: cell-based; conditions: Homo sapiens, THP-1; THP1 cells differentiated into macrophages, lipopolysaccharide 1 μg/mL, about 7 hours; read-out: TFG-β Inhibitory Activity (Test Example 6)
Experimental: The TGF-β inhibitory activity was measured using THP1 cells as follows. First, THP1 cells were seeded on a 24-well culture plate at […], and culture was carried out overnight at 37° C. and 5% CO2 in RPMI-1640 medium (containing 10% fetal bovine serum, penicillin, and streptomycin) supplemented with 100 nM phorbol myristate acetate. After that, the cells were differentiated into macrophages by changing to RPMI-1640 medium without phorbol myristate acetate, followed by further culture at 37° C. under 5% CO2 overnight. Next, the THP1 culture plate was washed once with PBS(−) 1 mL/well, and then the test compound and lipopolysaccharide (final concentration 1 μg/mL) were added, followed by culture at 37° C. under 5% CO2 for about 7 hours. After culturing, the entire amount of the medium was collected, and the amount of TGF-β in the centrifuged supernatant was quantified by the sandwich ELISA method. The non-addition of lipopolysaccharide was used as a blank, and the control was obtained by adding only dimethyl sulfoxide instead of the test compound, and the inhibition rate of the test compound against the control was calculated by the following formula. Inhibition Rate (%)={1−(Value at Addition of Each Test Compound−Blank Value)/(Control Value−Blank Value)}×100
In addition, the TGF-β inhibitory activity (concentration for the inhibition rate of 50%) of the test compound was calculated from the inhibition curves based on the inhibition rate for various concentrations of the test compound.
The measurement results obtained by measuring the TFG-β inhibitory activity (50% inhibitory concentration) of the test compounds by the above method were evaluated in accordance with the following evaluated basis; A: less than 1 μM, and B: 1 μM or more.

[2] = Hepatic metabolic stability (rat liver microsome method); type: in vitro ADME; conditions: rat liver microsomes 0.5 mg/mL, test substance 1 μM, NADPH 1 mM, 37° C., 30 minutes
How it was run: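 Scored by % parent left after 30 min (30 min/0 min ×100, LC-MS), banded A ≥75%, B 60–<75%, C 45–<60%, D <45%. Incubation: 1 μM compound, 0.5 mg/mL rat microsomes, pH 7.4 phosphate buffer, 37° C, 5 min preincubation, NADPH 1 mM started, acetonitrile quench.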

[3] = finer grading of compounds rated A in Evaluation 1, read-out: PDE4 Inhibitory Activity (Evaluation 2)
[4] = scintillation proximity assay, class symbols of Evaluation 1, read-out: PDE4 Inhibitory Activity (concentration for the inhibition rate of 50%, IC50), Evaluation 1
[5] = scintillation proximity assay, read-out: PDE4 Inhibitory Activity (Evaluation 1; concentration for the inhibition rate of 50%)

In the case of `OC(c1ccc(-c2nccs2)c2oc(N3CC4CCC(C3)N4)nc12)C(F)(F)F` (centres unmarked) [Example 118, 1-(2-(3,8-Diazabicyclo[3.2.1]octan-3-yl)-7-(thiazol-2-yl)benzo[d]oxazol-4-yl)-2,2,2-trifluoroethan-1-ol], the IC50 (PDE4; [3]) is reported as 1 to 11 nM, the IC50 (PDE4; [4]) is reported as < 100 nM and the PDE4 inhibitory activity (PDE4) is reported as “particularly excellent”. For the same molecule, the IC50 (TNFα) was 100 to 500 nM and the “Mouse Chronic Dermatitis Model (Test Example 8), Oral: edema suppression rate” value (“Mouse Chronic Dermatitis Model” below) [1] was “B (B: 40% or more and less than 70%)”.

With `OC(c1ccc(-c2nccs2)c2oc(N3CC4CC(C3)N4)nc12)C(F)(F)F` (centres unmarked) [Example 120, 1-(2-(3,6-Diazabicyclo[3.1.1]heptan-3-yl)-7-(thiazol-2-yl)benzo[d]oxazol-4-yl)-2,2,2-trifluoroethan-1-ol] the IC50 (PDE4; [3]) was 1 to 11 nM, the IC50 (PDE4; [4]) was < 100 nM and the PDE4 inhibitory activity (PDE4) was “particularly excellent”. The IC50 (TGF-β) was < 1000 nM and the “Mouse Chronic Dermatitis Model” value [1] was “B (B: 40% or more and less than 70%)”.

With `COC(C)(C)c1cc(-c2nccs2)c2oc(N3CC4CC(C3)N4)nc2c1C(F)(F)F` [Example 176, 2-(3,6-Diazabicyclo[3.1.1]heptan-3-yl)-5-(2-methoxypropan-2-yl)-7-(thiazol-2-yl)-4-(trifluoromethyl)benzo[d]oxazole] the IC50 (PDE4; [3]) was 1 to 11 nM, the IC50 (PDE4; [4]) was < 100 nM and the PDE4 inhibitory activity (PDE4) was “particularly excellent”. The IC50 (TNFα) was 100 to 500 nM and the “Mouse Chronic Dermatitis Model” value [1] was “B (B: 40% or more and less than 70%)”.

In the case of `CC(C)(O)c1cc(-c2nccs2)c2oc(N3CC4CCC(C3)N4)nc2c1OC(F)(F)F` [Example 195, 2-(2-(3,8-diazabicyclo[3.2.1]octan-3-yl)-7-(thiazol-2-yl)-4-(trifluoromethoxy)benzo[d]oxazol-5-yl)propan-2-ol], the IC50 (PDE4; [3]) is reported as ≤ 1 nM, the IC50 (PDE4; [5]) is reported as < 100 nM and the PDE4 inhibitory activity (PDE4) is reported as “particularly excellent”. For the same molecule, the IC50 (TNFα) was 100 to 500 nM, the IC50 (TGF-β) was < 1000 nM and the “Mouse Chronic Dermatitis Model” value [1] was “B (B: 40% or more and less than 70%)”.

For `COC(C)(C)c1cc(-c2nccs2)c2oc(N3CC4CCC(C3)N4)nc2c1OC(F)(F)F` [Example 198, 2-(3,8-Diazabicyclo[3.2.1]octan-3-yl)-5-(2-methoxypropan-2-yl)-7-(thiazol-2-yl)-4-(trifluoromethoxy)benzo[d]oxazole], the IC50 (PDE4; [3]) was ≤ 1 nM, the IC50 (PDE4; [5]) was < 100 nM and the PDE4 inhibitory activity (PDE4) was “particularly excellent”. The IC50 (TNFα) was 100 to 500 nM.

With `COC(C)(C)c1cc(-c2nccs2)c2oc(N3CC4CC(C3)N4)nc2c1OC(F)(F)F` [Example 199, 2-(3,6-Diazabicyclo[3.1.1]heptan-3-yl)-5-(2-methoxypropan-2-yl)-7-(thiazol-2-yl)-4-(trifluoromethoxy)benzo[d]oxazole] the IC50 (PDE4; [3]) was 1 to 11 nM, the IC50 (PDE4; [5]) was < 100 nM and the PDE4 inhibitory activity (PDE4) was “particularly excellent”. The IC50 (TGF-β) was < 1000 nM and the “Mouse Chronic Dermatitis Model” value [1] was “B (B: 40% or more and less than 70%)”.

For `CC(O)c1cc(-c2nccs2)c2oc(N3CC4CC(C3)N4)nc2c1OC(F)(F)F` (centres unmarked) [Example 203, 1-(2-(3,6-Diazabicyclo[3.1.1]heptan-3-yl)-7-(thiazol-2-yl)-4-(trifluoromethoxy)benzo[d]oxazol-5-yl)ethan-1-ol], the IC50 (PDE4; [3]) was 1 to 11 nM, the IC50 (PDE4; [5]) was < 100 nM and the PDE4 inhibitory activity (PDE4) was “particularly excellent”. The IC50 (TGF-β) was < 1000 nM and the “Mouse Chronic Dermatitis Model” value [1] was “B (B: 40% or more and less than 70%)”.

In the case of `OCC(F)(F)Oc1ccc(-c2nccs2)c2oc(N3CC4CC(C3)N4)nc12` [Example 249, 2-((2-(3,6-Diazabicyclo[3.1.1]heptan-3-yl)-7-(thiazol-2-yl)benzo[d]oxazol-4-yl)oxy)-2,2-difluoroethan-1-ol], the “Residual ratio (% remaining for 30-minute reaction)” value [2] is reported as “B (B: 60% or more and less than 75%)”, the IC50 (PDE4; [3]) is reported as ≤ 1 nM and the IC50 (PDE4; [5]) is reported as < 100 nM. The PDE4 inhibitory activity (PDE4) was “particularly excellent”, the IC50 (TNFα) was < 100 nM and the “Mouse Chronic Dermatitis Model” value [1] was “B (B: 40% or more and less than 70%)”.
